One may read the Kd as the equilibrium constant for the complex coming apart. A low value points to higher affinity.

This passage reports Kd results from BindingDB's records for doi:10.1016/j.bioorg.2017.05.004 (The Affiliated Hospital of Qingdao University, 2017).

In this experiment the target is T1, Troponin C, slow skeletal and cardiac muscles [4-85] (Human, UniProt P63316).
T1 construct: 4-85
Nature of the experiment: Fluorescence Polarization Assay. As to conditions: pH 7; 14 °C. How it is done:
The fluorescence polarization assays were performed at 298 K following a protocol modified from previously reported protocol [Zhuo et al., Mol. Biosyst., 12:2532-2540]. Synthetic peptides were labeled with fluorescein. Titrations were conducted by monitoring polarization as a function of increasing amounts of the proteins of TnC N-terminal domain added to 20 nM fluorescein-peptides in a buffer 50 mM HEPES, pH 7.0, 0.1% Tween 20, 200 mM NaCl and 15 mM DTT.
(In general: In fluorescence polarisation assays a small probe gives low polarisation when free and higher when bound to something large.)

T1 sequence (P63316 4-85): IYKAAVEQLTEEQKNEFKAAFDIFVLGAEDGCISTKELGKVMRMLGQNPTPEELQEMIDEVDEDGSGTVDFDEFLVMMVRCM

In turn, `CSCC[C@H](NC(=O)[C@H](C)NC(=O)[C@H](CC(=O)O)NC(=O)[C@H](C)N)C(=O)N[C@@H](CCSC)C(=O)N[C@@H](CCC(N)=O)C(=O)N[C@@H](C)C(=O)N[C@@H](CC(C)C)C(=O)N[C@@H](CC(C)C)C(=O)NCC(=O)N[C@@H](C)C(=O)N[C@@H](CCCNC(=N)N)C(=O)O` [ADAMMQALLGAR] registered a Kd of 15.7 µM. In the case of `CC[C@H](C)[C@H](N)C(=O)N[C@@H](CO)C(=O)N[C@@H](C)C(=O)N[C@@H](CC(=O)O)C(=O)N[C@@H](C)C(=O)N[C@@H](CCSC)C(=O)N[C@@H](CCSC)C(=O)N[C@@H](CCC(N)=O)C(=O)N[C@@H](C)C(=O)N[C@@H](CC(C)C)C(=O)N[C@@H](CC(C)C)C(=O)NCC(=O)N[C@@H](C)C(=O)N[C@@H](CCCNC(=N)N)C(=O)N[C@@H](C)C(=O)N[C@@H](CCCCN)C(=O)N[C@@H](CCC(=O)O)C(=O)N[C@@H](CO)C(=O)O` [ISADAMMQALLGARAKES], binding was put at a Kd of 4.2 µM.
